These results are taken from paper PMC11490872, “Drug-resistant menin variants retain high binding affinity and interactions with MLL1” (The Journal of Biological Chemistry, 2024).

Numbering of substitutions follows the chain as printed. pKd: −log10 of the molar value. Where no end group is shown, it is not given here.

Assay [1] concerns wild-type, M327I, T349M, and G331R menin bound to FLSN-MLL1^4-43. The assay is described as follows: FP competition, stated over wild-type, M327I, T349M and G331R menin. Format: binding, human. The settings on record: versus MLL1^46. The method, then:
(§1) FP competition experiments used FLSN-MLL1^4-43 at 4 nM and menin at 4 nM against varying concentrations of unlabeled MLL1 peptides in FP buffer for IC50 determination. Protein-peptide complexes were incubated for 1 h before unlabeled peptide competitors were added to ensure complete binding. Unlabeled peptide competitors were incubated with the protein-peptide complexes for 3 h before measurement using the PHERAstar microplate reader ([25]). Experiments with Revumenib were run with the same steps and conditions but used 5% DMSO in the final solution. Kd and IC50 values were calculated using GraphPad Prism 10 by plotting mP values measured for each protein/MLL1 peptide or Revumenib as a function of protein/MLL1 peptide (or Revumenib) concentration ([25]). All FP binding and competition experiments were run in triplicate.

Assay [2] concerns the target T1, menin^G331R (Homo sapiens, UniProt O00255, G326R).
T1 construct: The gene encoding full-length human menin was cloned into a pET32a expression vector; thioredoxin-His6 (cleaved yes); made in house; host or cells: E. coli BL21(DE3)
T1 sequence (O00255 1-610 G326R): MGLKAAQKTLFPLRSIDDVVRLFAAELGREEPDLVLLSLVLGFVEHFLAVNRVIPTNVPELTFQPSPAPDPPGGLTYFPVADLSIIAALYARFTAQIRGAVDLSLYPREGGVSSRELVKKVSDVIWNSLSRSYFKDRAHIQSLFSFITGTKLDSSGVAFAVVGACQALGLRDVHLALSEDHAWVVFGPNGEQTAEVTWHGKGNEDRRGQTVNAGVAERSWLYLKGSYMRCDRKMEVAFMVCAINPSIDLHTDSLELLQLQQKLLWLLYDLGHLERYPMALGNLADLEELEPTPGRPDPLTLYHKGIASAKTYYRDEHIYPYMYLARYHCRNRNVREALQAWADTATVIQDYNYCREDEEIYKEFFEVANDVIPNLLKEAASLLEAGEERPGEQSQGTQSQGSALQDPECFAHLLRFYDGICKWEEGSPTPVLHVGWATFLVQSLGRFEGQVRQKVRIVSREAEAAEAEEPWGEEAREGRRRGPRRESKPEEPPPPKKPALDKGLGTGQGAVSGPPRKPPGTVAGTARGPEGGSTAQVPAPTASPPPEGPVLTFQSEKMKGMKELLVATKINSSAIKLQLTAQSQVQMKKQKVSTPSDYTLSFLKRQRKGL
The experiment in a line: FP binding of fluorescein-labeled MLL1 peptides to menin^G331R. To be noted: versus menin^WT, Fig. 1B (FP and ITC). As for the experimental part: (§2) FP binding experiments utilized MLL1-derived peptides, FLSN-MLL1^4-43 at 4 nM and FLSN-MLL1^4-15 at 10 nM, titrated against a range of menin concentrations in the FP buffer (50 mM Tris pH 7.5, 50 mM NaCl, 1 mM TCEP) to obtain Kd measurements. Protein-peptide complexes were incubated for 1 h before measuring the change in fluorescence polarization and anisotropy at 525 nm after excitations at 495 nm using the PHERAstar microplate reader (BMG) ([2]).
as §1

Assay [3] deals with T2, menin^G331D (Homo sapiens, UniProt O00255, G326D).
T2 construct: The gene encoding full-length human menin was cloned into a pET32a expression vector; thioredoxin-His6 (cleaved yes); made in house; host or cells: E. coli BL21(DE3)
T2 sequence (O00255 1-610 G326D): T1 sequence (O00255 1-610 G326R) with R326D
The experiment in a line: FP binding of fluorescein-labeled MLL1 peptides to menin^G331D. To be noted: versus menin^WT, Fig. 1B (FP and ITC). As for the experimental part:
as §2, §1

Assay [4] concerns patients with MLL1-r and NPM1-mut acute leukemias. To be noted: cited from earlier work.
The target of assay [5] is menin. On the set-up: method as in PMID 20961854, PMID 22936661. To be noted: cited from earlier work.
In assay [6] the target is MLL1 MBM1 6-13 (Homo sapiens) (UniProt Q03164). The settings on record: cited from earlier work.
Sequence of MLL1 MBM1 6-13 (Homo sapiens) (Q03164 whole entry, looked up, tested part not stated): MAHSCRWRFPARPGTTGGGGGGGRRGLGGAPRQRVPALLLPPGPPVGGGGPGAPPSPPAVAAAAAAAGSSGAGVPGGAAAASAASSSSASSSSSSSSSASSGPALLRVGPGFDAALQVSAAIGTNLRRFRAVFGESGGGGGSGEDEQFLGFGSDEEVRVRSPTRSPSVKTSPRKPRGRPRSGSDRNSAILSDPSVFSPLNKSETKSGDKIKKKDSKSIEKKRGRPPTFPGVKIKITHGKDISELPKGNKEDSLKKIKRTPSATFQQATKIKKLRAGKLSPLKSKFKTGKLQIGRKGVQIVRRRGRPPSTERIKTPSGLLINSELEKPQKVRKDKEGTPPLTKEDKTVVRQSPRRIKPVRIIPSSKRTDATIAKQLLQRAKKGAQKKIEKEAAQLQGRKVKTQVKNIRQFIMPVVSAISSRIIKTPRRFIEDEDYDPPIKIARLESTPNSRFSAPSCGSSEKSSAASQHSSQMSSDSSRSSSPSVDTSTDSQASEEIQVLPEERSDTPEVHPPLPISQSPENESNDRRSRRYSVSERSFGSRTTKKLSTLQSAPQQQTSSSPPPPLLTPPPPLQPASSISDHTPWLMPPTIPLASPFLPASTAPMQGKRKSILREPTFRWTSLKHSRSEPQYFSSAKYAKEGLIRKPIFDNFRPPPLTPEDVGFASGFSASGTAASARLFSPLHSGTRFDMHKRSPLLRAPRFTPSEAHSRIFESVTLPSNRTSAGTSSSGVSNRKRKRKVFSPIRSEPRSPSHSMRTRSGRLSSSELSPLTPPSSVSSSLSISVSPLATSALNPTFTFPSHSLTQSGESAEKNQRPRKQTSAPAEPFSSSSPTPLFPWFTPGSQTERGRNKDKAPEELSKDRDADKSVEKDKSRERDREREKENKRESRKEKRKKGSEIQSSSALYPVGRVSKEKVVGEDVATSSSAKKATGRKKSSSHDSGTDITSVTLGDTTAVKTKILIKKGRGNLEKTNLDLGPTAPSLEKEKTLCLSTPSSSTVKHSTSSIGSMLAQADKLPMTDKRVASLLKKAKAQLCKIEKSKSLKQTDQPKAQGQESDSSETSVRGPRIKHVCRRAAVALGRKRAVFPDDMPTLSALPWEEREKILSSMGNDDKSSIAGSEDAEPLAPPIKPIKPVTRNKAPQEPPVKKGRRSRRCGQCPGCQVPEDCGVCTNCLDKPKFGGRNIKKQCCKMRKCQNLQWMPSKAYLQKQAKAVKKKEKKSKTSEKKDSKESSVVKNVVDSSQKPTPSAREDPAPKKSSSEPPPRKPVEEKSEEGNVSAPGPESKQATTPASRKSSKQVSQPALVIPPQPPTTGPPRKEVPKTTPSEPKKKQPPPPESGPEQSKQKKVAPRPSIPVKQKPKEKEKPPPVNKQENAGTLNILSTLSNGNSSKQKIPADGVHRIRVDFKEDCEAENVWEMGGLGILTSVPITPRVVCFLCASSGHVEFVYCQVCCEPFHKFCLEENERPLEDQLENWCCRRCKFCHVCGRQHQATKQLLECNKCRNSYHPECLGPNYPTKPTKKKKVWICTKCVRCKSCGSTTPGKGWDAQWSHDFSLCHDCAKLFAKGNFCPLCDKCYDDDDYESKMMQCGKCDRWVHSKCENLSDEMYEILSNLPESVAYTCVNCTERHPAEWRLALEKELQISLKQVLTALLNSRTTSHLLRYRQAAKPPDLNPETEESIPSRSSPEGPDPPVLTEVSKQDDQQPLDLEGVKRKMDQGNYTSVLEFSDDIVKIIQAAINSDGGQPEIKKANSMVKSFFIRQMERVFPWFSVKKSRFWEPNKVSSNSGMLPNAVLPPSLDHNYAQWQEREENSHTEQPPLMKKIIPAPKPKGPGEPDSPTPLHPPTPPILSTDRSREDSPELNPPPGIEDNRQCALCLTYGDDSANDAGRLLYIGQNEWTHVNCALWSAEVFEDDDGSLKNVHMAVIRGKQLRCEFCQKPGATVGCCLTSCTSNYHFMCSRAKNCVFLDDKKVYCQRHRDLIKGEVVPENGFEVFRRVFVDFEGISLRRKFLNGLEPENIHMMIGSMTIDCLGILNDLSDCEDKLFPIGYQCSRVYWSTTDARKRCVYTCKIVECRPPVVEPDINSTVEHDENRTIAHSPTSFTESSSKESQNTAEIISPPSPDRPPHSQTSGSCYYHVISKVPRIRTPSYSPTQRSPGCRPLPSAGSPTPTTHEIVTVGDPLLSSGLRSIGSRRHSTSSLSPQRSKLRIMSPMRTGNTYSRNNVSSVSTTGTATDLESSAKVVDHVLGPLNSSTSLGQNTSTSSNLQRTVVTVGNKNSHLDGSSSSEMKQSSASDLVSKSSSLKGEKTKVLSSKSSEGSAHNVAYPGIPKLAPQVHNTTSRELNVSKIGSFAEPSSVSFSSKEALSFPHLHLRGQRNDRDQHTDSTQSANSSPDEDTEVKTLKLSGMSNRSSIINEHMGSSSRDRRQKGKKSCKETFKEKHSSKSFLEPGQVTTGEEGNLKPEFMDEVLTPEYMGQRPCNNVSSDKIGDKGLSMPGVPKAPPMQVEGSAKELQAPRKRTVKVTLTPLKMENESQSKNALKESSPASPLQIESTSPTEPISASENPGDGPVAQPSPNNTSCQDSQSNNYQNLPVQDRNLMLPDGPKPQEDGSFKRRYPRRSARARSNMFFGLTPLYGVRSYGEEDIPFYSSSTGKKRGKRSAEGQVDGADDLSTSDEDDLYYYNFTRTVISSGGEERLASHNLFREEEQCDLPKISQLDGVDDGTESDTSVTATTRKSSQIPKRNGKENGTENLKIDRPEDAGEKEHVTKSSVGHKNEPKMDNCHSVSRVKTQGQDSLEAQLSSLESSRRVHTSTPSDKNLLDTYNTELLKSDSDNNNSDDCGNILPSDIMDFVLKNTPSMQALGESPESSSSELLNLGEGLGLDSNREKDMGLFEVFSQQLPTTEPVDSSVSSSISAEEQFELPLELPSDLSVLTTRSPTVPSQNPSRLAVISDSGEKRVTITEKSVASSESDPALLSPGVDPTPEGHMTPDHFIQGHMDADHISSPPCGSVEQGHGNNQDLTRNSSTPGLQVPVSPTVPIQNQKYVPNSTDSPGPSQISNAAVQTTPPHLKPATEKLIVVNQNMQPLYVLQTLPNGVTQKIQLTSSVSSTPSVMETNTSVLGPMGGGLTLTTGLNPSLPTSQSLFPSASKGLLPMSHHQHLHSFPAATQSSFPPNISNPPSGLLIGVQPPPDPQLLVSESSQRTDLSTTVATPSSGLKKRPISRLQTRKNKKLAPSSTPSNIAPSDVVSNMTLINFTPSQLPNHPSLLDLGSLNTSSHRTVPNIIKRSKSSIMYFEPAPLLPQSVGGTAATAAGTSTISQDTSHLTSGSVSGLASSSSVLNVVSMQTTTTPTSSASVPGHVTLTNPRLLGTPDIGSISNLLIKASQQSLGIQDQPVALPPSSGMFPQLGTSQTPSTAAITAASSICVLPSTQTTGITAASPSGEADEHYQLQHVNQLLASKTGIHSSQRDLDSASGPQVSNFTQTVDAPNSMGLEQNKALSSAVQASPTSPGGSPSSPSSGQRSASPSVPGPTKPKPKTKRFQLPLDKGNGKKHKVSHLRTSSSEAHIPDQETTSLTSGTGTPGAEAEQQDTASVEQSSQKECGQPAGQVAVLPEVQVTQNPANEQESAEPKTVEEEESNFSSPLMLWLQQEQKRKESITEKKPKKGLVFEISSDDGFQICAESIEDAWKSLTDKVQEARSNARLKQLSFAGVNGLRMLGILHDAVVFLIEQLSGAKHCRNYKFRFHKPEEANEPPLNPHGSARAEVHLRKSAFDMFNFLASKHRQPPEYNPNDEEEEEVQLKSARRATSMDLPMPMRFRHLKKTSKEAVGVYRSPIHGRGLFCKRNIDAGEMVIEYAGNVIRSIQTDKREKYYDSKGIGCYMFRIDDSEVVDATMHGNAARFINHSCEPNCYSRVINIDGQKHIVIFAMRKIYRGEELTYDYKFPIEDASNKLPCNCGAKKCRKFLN
Assay [7] deals with MLL1 MBM2 24-40 (Homo sapiens) (UniProt Q03164). To be noted: cited from earlier work.
In assay [8] the target is T3, menin^G331D-FLSN-MLL1^4-43 (Homo sapiens, UniProt O00255, G326D).
T3 construct: The gene encoding full-length human menin was cloned into a pET32a expression vector; thioredoxin-His6 (cleaved yes); made in house; host or cells: E. coli BL21(DE3); probe peptide from GenScript
T3 sequence (O00255 1-610 G326D): T1 sequence (O00255 1-610 G326R) with R326D
The assay is described as follows: FP competition, displacement of FLSN-MLL1^4-43 from menin^G331D. Format: binding. To be noted: even with increased incubation times, Fig. S6. The method, then: To better understand the mechanism of MLL1 binding with menin mutants, we performed FP competition experiments using FLSN-MLL1^4-43 as a fluorescent probe for competitive displacement by MLL1 peptides ([25]). First, we tested competition with MLL1^160 and found very similar IC50 values for wild-type menin and the three mutants M327I, T349M, and G331R, ranging between 4.1 and 8 nM (Fig. 3, A and B). […] We have hypothesized that the lack of competition with MLL1 for the menin^G331D mutant might result from a much slower dissociation rate of the menin^G331D–MLL1 complex, and to evaluate this we performed time-dependent competition experiments with MLL1^160 and MLL1^46. Standard conditions in the FP assay include 3 h incubations of the menin-FLSN-MLL1^4-43 complex with competitors.
as §1

Setting [9] is: Phase 1/2, AML patients with KMT2A (MLL1) rearrangements and NPM1 mutations.

For the molecule `C[C@H](NC(=O)[C@@H](N)CO)C(=O)N[C@@H](CCCNC(=N)N)C(=O)N[C@@H](Cc1c[nH]c2ccccc12)C(=O)N[C@@H](CCCNC(=N)N)C(=O)N[C@@H](Cc1ccccc1)C(=O)N1CCC[C@H]1C(=O)N[C@@H](C)C(=O)N[C@@H](CCCNC(=N)N)C(=O)N1CCC[C@H]1C(=O)NCC(=O)N[C@H](C(N)=O)[C@@H](C)O` [MLL1^4-15], the “weaker competition activity than MLL1^46” value in assay [1] is reported as 3 orders of magnitude. Moreover, the “decrease in binding affinity for G331R” value in assay [2] is “approximately 3 fold”. Further, in assay [3], the “decrease in binding affinity for G331D” value is given as around 10 fold.
On to `CNc1nc(NC2CCN(Cc3ccc4c(cc(C#N)n4C[C@H](C)N4CCN(S(C)(=O)=O)CC4)c3C)CC2)c2cc(CC(F)(F)F)sc2n1` [Ziftomenib], for which, in assay [4] (setting [9]), the complete remission is around 35% and the overall response rate is listed as around 45%. For the same molecule, the “rate of complete remission” value in assay [4] (phase 1/2 first-in-human trials, MLL1-r and NPM1-mut acute leukemias) was “over 30%”.
For “MBM1: menin binding motif 1, amino acid residues 6 to 13 of MLL1 (RWRFPARP; UniProt Q03164 6-13, looked up, fragment)”, in assay [2], the “decrease in binding affinity for G331R” value is recorded as 3 fold. Further, the “decrease in binding affinity for G331D” value in assay [3] turned out to be 10 fold.
As for “MBM2: menin binding motif 2, residues 24 to 40 of MLL1 (RRGLGGAPRQRVPALLL; UniProt Q03164 24-40, looked up, fragment)”, the pKd in assay [5] was 6.00.
Take Menin (from UniProt O00255): the pKd is 7.25 in assay [6] and 6.00 in assay [7].
Consider “SARWRFPARPGTTGGGGGGGRRGLG-NH2 (C-terminus assumed) [MLL1^4-28, reference compound]”, for which the “competition for the menin^G331D variant” value in assay [8] is “no significant competition”.

The term pKd denotes the Kd on a negative log10 scale, so that one unit is a factor of ten.
